Experiments:
[1] = target: T1, AChE type VI-S (from the electric eel) (Electrophorus electricus, UniProt O42275); test: AChE inhibition assay (colorimetric, DTNB reduction); format: biochemical; details: DTNB 0.5 mM, AChE 0.05 U mL^−1, acetylthiocholine iodide 0.5 mM, 37 °C, phosphate buffer pH 8.0; mean ± SD; read-out: EC50±SD (toxicity toward AChE)
T1 construct: purchased Sigma–Aldrich, USA type VI-S (catalogue number not given)
Experimental: A colorimetric assay based on reduction of DTNB was used to measure AChE inhibition as described previously, [24], in the presence of a phosphate buffer system in order to eliminate the effects of pH changes on enzyme activity. Briefly, IL solutions were prepared with 0.2 M phosphate buffer (pH 8.0) in 96-well microtiter plates. The enzyme (0.2 U mL^−1, plus 0.25 mg mL^−1 bovine serum albumin in the same phosphate buffer), and DTNB (2 mM, plus 0.185 mg mL^−1 NaHCO3 in the same phosphate buffer) were added to each well and kept at 37 °C for 5 min, and then the reaction was initiated by adding acetylthiocholine iodide (2 mM in the same phosphate buffer). In the experimental reactions, the final concentrations of DTNB, acetylthiocholine iodide and AChE were 0.5 mM, 0.5 mM and 0.05 U mL^−1, respectively. Except where stated otherwise, the concentration range used to calculate EC50 of the [Ch][AA] ILs was 0–50 mM. However, for strongly alkaline [Ch][AA] ILs such as [Ch][Lys], the maximum concentration used was 20 mM in order to avoid changes in enzyme activity due to pH changes that would be caused if the IL exceeded the buffering capacity of the phosphate buffer. Acidic amino acid-derived ILs ([Ch][Asp] and [Ch][Glu]) were used up to 80 mM. The control compounds cholinium chloride ([Ch][Cl]), [Bmim][BF4] and acetone were used at concentration ranges of 0–80 mM, 0–50 mM and 10 mM–2.5 M, respectively. Control experiments without enzyme were carried out under otherwise identical conditions. Reduction of DTNB was monitored at 405 nm and at 10 second intervals in a microplate reader (Wallac 1420 VICTOR3, PerkinElmer, Singapore) over a period of 5 min. Enzyme activity was expressed as ΔOD min^−1 obtained via linear regression analysis. All assays were performed at least in triplicate.
All data were analyzed by One-Way analysis of variance using SPSS 11.5 (SPSS Inc., USA). EC50 values are presented as mean ± standard deviation (SD) from at least three repeats, and confidence intervals (α = 0.05) of EC50 are also presented. The One-Way ANOVA was used to judge if the difference between the different ILs groups was significant. When the p value was<0.05, the difference was considered to be significant.

[2] = system: L. monocytogenes ATCC 19115; test: Antimicrobial activity, tube dilution method; format: cell-based, Listeria monocytogenes; details: four repeated experiments; for MIC: 24 h at 37 °C; for MBC: kills 99.9% or more
Experimental: (§1) Antimicrobial activity was measured via the tube dilution method as described previously. Briefly, E. coli, S. aureus, S. enteritidis and L. monocytogenes were cultured in Mueller-Hinton broth for 24 h at 37 °C. A microorganism suspension of 10^6 cfu mL^−1 (cfu, colony forming units) was prepared from each culture. IL solutions (31.3–1500 mM) were prepared with sterilized Mueller-Hinton broth, and then were sterilized by filtration (0.45 µm pore-diameter membrane). The various permutations of microorganism suspension (50 µL) and IL solution (50 µL) were mixed in 96-well microtiter plate. Growth of the microorganisms was determined visually after incubation for 24 h at 37 °C. Controls were conducted under the same conditions: negative controls without microorganisms and positive controls without ILs. The lowest concentration at which there was no visible growth (turbidity) was taken as the minimal inhibitory concentration (MIC). Samples of 20 µL from each well were spread onto Mueller-Hinton agar medium with inactivates (0.3% lecithin, 3% polysorbate 80 and 0.1% L-cysteine) and incubated for 48 h at 37 °C. The lowest concentration of the IL that killed 99.9% or more of the test bacterium was taken as the minimum biocidal concentration (MBC).

E. coli ATCC 8739 = test: Antimicrobial activity, tube dilution method; format: cell-based, Escherichia coli; details: four repeated experiments; for MIC: 24 h at 37 °C; for MBC: kills 99.9% or more
Experimental: as §1

S. aureus ATCC 29213 = test: Antimicrobial activity, tube dilution method; format: cell-based, Staphylococcus aureus; details: four repeated experiments; for MIC: 24 h at 37 °C; for MBC: kills 99.9% or more
Experimental: as §1

[3] = system: S. enteritidis ATCC 14128; test: Antimicrobial activity, tube dilution method; format: cell-based, Salmonella enteritidis; details: four repeated experiments; for MIC: 24 h at 37 °C; for MBC: kills 99.9% or more
Experimental: as §1

T1 sequence (O42275 24-633): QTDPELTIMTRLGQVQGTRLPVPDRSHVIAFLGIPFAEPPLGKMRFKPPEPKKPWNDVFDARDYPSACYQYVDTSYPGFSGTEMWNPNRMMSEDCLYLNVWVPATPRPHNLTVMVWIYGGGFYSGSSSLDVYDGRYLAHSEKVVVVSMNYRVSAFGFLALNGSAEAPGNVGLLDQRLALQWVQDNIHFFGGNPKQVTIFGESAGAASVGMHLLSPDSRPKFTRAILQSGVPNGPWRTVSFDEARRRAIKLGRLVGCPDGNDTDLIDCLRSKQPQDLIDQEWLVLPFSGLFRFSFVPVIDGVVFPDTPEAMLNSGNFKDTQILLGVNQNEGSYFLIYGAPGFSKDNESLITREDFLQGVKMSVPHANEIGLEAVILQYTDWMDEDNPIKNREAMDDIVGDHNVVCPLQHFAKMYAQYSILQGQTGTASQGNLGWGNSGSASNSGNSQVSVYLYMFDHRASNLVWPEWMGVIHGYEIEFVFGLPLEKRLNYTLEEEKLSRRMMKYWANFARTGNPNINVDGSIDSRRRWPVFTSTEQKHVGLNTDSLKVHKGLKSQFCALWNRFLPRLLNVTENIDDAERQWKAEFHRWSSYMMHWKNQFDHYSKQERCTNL

| SMILES | EC50 [1] [mM] | MIC [2] [mM] | MBC [2] [mM] | MIC (E. coli ATCC 8739) [mM] | MBC (E. coli ATCC 8739) [mM] | MIC (S. aureus ATCC 29213) [mM] | MBC (S. aureus ATCC 29213) [mM] | MIC [3] [mM] | MBC [3] [mM] |
| --- | --- | --- | --- | --- | --- | --- | --- | --- | --- |
| C[N+](C)(C)CCO.[Cl-] [[Ch][Cl], cholinium chloride, reference compound] | 3.16 ± 0.09 | >750 | >750 | >750 | >750 | >750 | >750 | >750 | >750 |
| C[N+](C)(C)CCO.C[N+](C)(C)CCO.N[C@@H](CC(=O)[O-])C(=O)[O-] [[Ch][Asp]] | 3.81 ± 0.09 | 500 | 750 | 500 | 750 | 750 | 750 | 125 | 188 |
| C[N+](C)(C)CCO.N=C(N)NCCC[C@H](N)C(=O)[O-] [[Ch][Arg]] | 3.67 ± 0.07 | 93.8 | 125 | 46.9 | 93.8 | 93.8 | 125 | 46.9 | 62.5 |
